Patent US20230074252A1, “DOSAGES AND METHODS FOR TREATING PULMONARY ARTERIAL HYPERTENSION WITH RODATRISTAT” (Altavant Sciences GmbH, priority 2020, published 2023)
Where “and” joins values, the source holds several entries; their conditions need not be identical. Identical values can stand only once.

What was measured:
[1] = Metabolic stability in human hepatocytes; format: in vitro ADME; conditions: 2 h incubation
Experimental: (§1) The metabolic stability of RVT-1201 was measured in vitro in hepatocytes, liver microsomes, lung microsomes, intestinal S9, lung S9, liver S9 and whole blood. The major metabolite detected in incubations with human hepatocytes was KAR5417 (KRS-02). RVT-1201 was rapidly metabolized to form KAR5417, with <5% remaining after a 2 h incubation. In heat deactivated rat hepatocytes, <5% RVT-1201 remained after 2 h incubation in the same study. Therefore, RVT-1201 metabolism (and KAR5417 formation) are not dependent on oxidative or conjugative enzymatic processes. Formation of KAR5417 from RVT-1201 is a de-esterification process, which implicates an esterase or esterases as the major mechanism. The enzyme(s) responsible for RVT-1201 metabolism to form KAR5417 has not been identified but are considered to be carboxylesterase(s). In addition, RVT-1201 metabolism and KAR5417 formation were investigated in rat and human whole blood(XT184028).

[2] = Stability in heat deactivated rat hepatocytes; format: in vitro ADME; conditions: 2 h incubation
Experimental: as §1

[3] = Intrinsic clearance in liver S9 fractions; format: in vitro ADME; conditions: human, liver S9 fraction
Experimental: as §1
However, in human whole blood incubations, no loss of RVT-1201 was observed. […] Therefore, metabolism of RVT-1201 was assigned to a cytosolic carboxylesterase (CES1) within the PBPK model. Although the enzyme responsible for RVT-1201 elimination and KAR5417 formation has not been identified, CES1 was selected to represent the enzymatic metabolism of RVT-1201 for this fit-for-purpose PBPK model.

CYP2C19 = CYP2C19 (Homo sapiens, UniProt P33261); test: FDA guidance DDI risk assessment, perpetrator potential; parameters: from tissue; host or cells: pooled human liver microsomes (n=200 donors); conditions: predicted @ 600 mg BID
Chain of CYP2C19 (P33261 whole entry): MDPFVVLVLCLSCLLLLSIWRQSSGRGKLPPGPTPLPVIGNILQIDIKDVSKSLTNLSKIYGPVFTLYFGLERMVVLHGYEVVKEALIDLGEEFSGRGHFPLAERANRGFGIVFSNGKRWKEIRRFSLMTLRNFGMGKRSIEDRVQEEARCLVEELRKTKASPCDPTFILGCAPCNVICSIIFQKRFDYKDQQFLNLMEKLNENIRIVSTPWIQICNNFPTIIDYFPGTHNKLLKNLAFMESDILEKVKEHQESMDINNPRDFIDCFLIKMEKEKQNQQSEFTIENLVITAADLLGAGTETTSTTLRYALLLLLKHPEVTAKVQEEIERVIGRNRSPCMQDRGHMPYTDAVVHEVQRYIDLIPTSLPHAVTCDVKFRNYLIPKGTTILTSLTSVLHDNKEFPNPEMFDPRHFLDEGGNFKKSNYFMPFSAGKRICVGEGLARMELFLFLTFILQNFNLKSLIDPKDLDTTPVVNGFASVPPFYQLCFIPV
Experimental: (§2) The potential for rodatristat ethyl or rodatristat to be perpetrators of drug-drug interactions was assessed across in vitro CYP and transporter studies (Tables 1-4). […] This analysis was performed to assess the potential for clinically meaningful DDIs as recommended in FDA Draft Guidance: “In Vitro Metabolism- and Transporter-Mediated Drug-Drug Interaction Studies Guidance for Industry”; October 2017 (FDA, 2017).
(§3) R1 and R3 values using free (non-protein bound) drug levels were calculated based on plasma protein binding (fraction bound, fb) of rodatristat ethyl (0.995) and rodatristat (0.991). The FDA Guidance is set forth In Vitro Metabolism- and Transporter-Mediated Drug-Drug Interaction Studies Guidance for Industry (2017). […] Parameters for the prediction are set forth below in Tables 5 and 6.

CYP2C8 [4] = target: T1, CYP2C8 (Homo sapiens, UniProt P10632); test: as above; parameters: from tissue; host or cells: pooled human liver microsomes (n=200 donors); conditions: for Potential for interaction (perpetrator), CYP2C8: predicted @ 600 mg BID
T1 sequence (P10632 1-490): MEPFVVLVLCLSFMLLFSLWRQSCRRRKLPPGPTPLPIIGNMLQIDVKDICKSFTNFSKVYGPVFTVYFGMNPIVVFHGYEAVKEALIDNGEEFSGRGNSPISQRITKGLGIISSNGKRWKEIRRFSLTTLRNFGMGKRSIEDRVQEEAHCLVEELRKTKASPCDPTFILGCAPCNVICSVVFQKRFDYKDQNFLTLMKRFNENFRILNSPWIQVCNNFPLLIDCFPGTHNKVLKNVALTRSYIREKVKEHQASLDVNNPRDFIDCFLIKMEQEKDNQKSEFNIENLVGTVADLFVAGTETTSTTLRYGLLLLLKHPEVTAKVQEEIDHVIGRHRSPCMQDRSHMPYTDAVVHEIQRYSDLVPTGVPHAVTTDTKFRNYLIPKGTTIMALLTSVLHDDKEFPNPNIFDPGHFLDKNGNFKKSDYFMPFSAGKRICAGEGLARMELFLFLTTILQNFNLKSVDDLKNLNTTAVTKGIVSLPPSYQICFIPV
Experimental: as §2, §3

CYP2C9 = CYP2C9 (Homo sapiens, UniProt P11712); test: as above; parameters: from tissue; host or cells: pooled human liver microsomes (n=200 donors); conditions: predicted @ 600 mg BID
Chain of CYP2C9 (P11712 whole entry): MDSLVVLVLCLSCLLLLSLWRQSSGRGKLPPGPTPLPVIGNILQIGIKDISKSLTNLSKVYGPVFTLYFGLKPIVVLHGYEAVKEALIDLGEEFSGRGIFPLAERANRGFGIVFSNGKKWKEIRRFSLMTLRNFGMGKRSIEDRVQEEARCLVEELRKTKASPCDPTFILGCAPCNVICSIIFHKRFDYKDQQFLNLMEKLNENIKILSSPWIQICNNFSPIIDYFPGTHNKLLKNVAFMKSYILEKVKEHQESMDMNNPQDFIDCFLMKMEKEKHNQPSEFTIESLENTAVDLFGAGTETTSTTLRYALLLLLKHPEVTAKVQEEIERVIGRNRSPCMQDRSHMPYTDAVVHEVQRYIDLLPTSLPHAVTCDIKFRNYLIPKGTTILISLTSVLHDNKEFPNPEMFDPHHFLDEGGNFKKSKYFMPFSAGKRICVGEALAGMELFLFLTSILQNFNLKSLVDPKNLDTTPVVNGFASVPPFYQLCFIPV
Experimental: as §2, §3

MATE1 = target: T2, MATE1 (Homo sapiens, UniProt Q96FL8); test: In vitro transporter substrate assessment; format: in vitro ADME
T2 sequence (Q96FL8 1-570): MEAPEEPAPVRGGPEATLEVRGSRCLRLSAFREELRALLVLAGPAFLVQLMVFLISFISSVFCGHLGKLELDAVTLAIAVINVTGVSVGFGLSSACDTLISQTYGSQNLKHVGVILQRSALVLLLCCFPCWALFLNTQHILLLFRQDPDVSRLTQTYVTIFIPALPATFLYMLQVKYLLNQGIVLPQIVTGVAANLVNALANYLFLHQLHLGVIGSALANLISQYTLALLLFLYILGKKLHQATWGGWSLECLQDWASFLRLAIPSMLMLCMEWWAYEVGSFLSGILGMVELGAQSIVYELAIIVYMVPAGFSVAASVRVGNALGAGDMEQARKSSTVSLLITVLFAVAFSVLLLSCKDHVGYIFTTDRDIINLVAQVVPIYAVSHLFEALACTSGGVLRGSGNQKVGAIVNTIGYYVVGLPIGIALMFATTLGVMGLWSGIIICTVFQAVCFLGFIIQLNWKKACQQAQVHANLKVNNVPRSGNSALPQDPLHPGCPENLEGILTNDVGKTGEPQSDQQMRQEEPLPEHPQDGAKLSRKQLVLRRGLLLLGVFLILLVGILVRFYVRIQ
Source text: Consequently, the elimination of rodatristat into bile may be impacted by co-administration with agents that are BCRP inhibitors.

[5] = Rat 14C study, fraction of oral dose absorbed; format: in vivo
Source text: (§4) Calculation of Cmax, u, portal uses plasma Cmax, fraction of an oral dose absorbed (Fa) and measured unbound fraction in blood. For rodatristat, experimentally derived values were used for Fa determined in a rat 14C study (20%) and in vitro binding to human plasma (99.1%) and blood:plasma distribution (RB, 0.72). Walsky et al proposed a threshold where the ratio of Cmax, u, portal/Ki of <0.1 is associated with low risk. […] In the rat, the RE:R is ˜3-fold higher in portal blood compared to the periphery.

CYP2C8 [6] = target: T1, CYP2C8; test: Unbound hepatic portal vein Cmax versus Ki analysis (Walsky et al); parameters: from tissue; host or cells: pooled human liver microsomes (n=200 donors)
Source text: Walsky, et al^i evaluated criteria to assess the potential for approved drugs to elicit clinically-meaningful drug interactions via inhibition of 2C8. Following their evaluation of 209 compounds they opined that unbound hepatic portal vein concentration (Cmax, u, portal) compared to the in vitro Ki provides additional insight beyond peripheral Cmax (used for FDA criteria) as it reflects the unbound drug concentration entering the liver.
as §4

SMILES: CCOC(=O)[C@@H]1CC2(CCN(c3cc(O[C@H](c4ccc(Cl)cc4-c4ccccc4)C(F)(F)F)nc(N)n3)CC2)CN1 [Rodatristat ethyl, (S)-ethyl 8-(2-amino-6-((R)-1-(5-chloro-[1,1′-biphenyl]-2-yl)-2,2,2-trifluoroethoxy)pyrimidin-4-yl)-2,8-diazaspiro[4.5]decane-3-carboxylate]
- Remaining after incubation with human hepatocytes [1]: < 5%
- Remaining after incubation in heat deactivated rat hepatocytes [2]: < 5%
- microsomal CLint [3]: 20 µL/min/mg
- Potential for interaction (perpetrator), CYP2C19 (CYP2C19): No
- Potential for interaction (perpetrator), CYP2C8 (CYP2C8 [4]): No
- Potential for interaction (perpetrator), CYP2C9 (CYP2C9): No

SMILES: Nc1nc(O[C@H](c2ccc(Cl)cc2-c2ccccc2)C(F)(F)F)cc(N2CCC3(CC2)CN[C@H](C(=O)O)C3)n1 [Rodatristat, (S)-8-(2-amino-6-((R)-1-(5-chloro-[1,1′-biphenyl]-2-yl)-2,2,2-trifluoroeth-oxy)pyrimidin-4-yl)-2,8-diazaspiro[4.5]decane-3-carboxylic acid]
- In vitro substrate? MATE1 (MATE1): not an in vitro substrate and No
- Fraction of an oral dose absorbed (Fa) [5]: 20%
- Potential for interaction (perpetrator), CYP2C19 (CYP2C19): No
- Ratio of unbound Cmax to Ki, CYP2C8 (CYP2C8 [4]; 600 mg BID): 0.014
- Potential for interaction (perpetrator), CYP2C8 (CYP2C8 [4]): No
- Potential for interaction (perpetrator), CYP2C9 (CYP2C9): No
- Cmax, u, portal/Ki (CYP2C8 [6]): 0.128 and < 0.128
